From patent publication US5302700A, “Radiohalogenation conjugate technology” (Duke University, priority 1988, dated 1994)

Key:
[1] = Paired-label study: thyroid and stomach uptake of [125I]INA and [131I]iodide in mice; format: in vivo
Text: When radioiodine is released from proteins following in vivo administration, loss of label occurs (dehalogenation). Since free iodide is taken up avidly by the thyroid and, at early time points, localizes in the stomach, uptake of radioiodine by these tissues is often used as an indicator of dehalogenation in vivo.
(§1) The method of choice for comparing the pharmacokinetics of two radioiodinated products (or two samples of the same compound, each sample radioiodinated using a different method) is to administer both to the same group of animals, labeling the first with ^125 I and the second with ^131 I. By performing "paired-label" experiments, one can correct for systematic errors such as incomplete thyroid sampling (less than 10 mg in a mouse) which could make […] comparisons difficult.
(§2) In the first paired-label study, groups of mice were injected with both [^131 ]iodide and 5-^125 I]iodonicotinic acid (hereinafter INA), the labeled substrate which is attached to proteins in the SPC procedure.

[2] = Whole body clearance of INA and iodide (FIG. 1); format: in vivo, mice; details: vs iodide
Method: as §1, §2
One approach for decreasing the retention of a nuclide in normal tissues following the administration of labeled antibodies is to couple the isotope in a chemical form which will be excreted rapidly after antibody catabolism. Degradation of antibodies labeled using the SPC method should result in the production of 5-iodonicotinic acid (INA).

[3] = background; cited from earlier work
[4] = aqueous solution; background; cited from earlier work

SMILES | Stomach uptake ([1]; 1 hr after injection) | Thyroid uptake ([1]; 1 hr after injection) | Stomach uptake ([1]; 2 hr after injection) | Thyroid uptake ([1]; 2 hr after injection) | Stomach uptake ([1]; 4 hr after injection) | Thyroid uptake ([1]; 4 hr after injection) | Stomach uptake ([1]; 6 hr after injection) | Thyroid uptake ([1]; 6 hr after injection) | Stomach uptake ([1]; 24 hr after injection) | Thyroid uptake ([1]; 24 hr after injection) | dehalogenation in vivo of INA template [1] | thyroid uptake of 125I (INA), times lower than 131I (iodide) ([1]; thyroid, 125I vs 131I) | percentages of the injected dose localizing in thyroid and, at early time points, stomach, compared with iodide ([1]; vs iodide) | whole body clearance compared with iodide [2] | in vivo loss of radioiodine from the protein [3] | hydrolysis of the active ester [4]
I [Iodide, [^131 I]iodide, reference compound] | 16.56 ± 8.10 percentages of the injected do | 7.23 ± 1.27 percentages of the injected do | 12.61 ± 7.33 percentages of the injected do | 7.23 ± 1.39 percentages of the injected do | 3.53 ± 0.74 percentages of the injected do | 12.21 ± 3.27 percentages of the injected do | 4.16 ± 1.82 percentages of the injected do | 23.64 ± 4.95 percentages of the injected do | 0.06 ± 0.02 percentages of the injected do | 16.95 ± 4.98 percentages of the injected do | – | – | – | – | – | –
O=C(O)c1cncc([125I])c1 [INA, 5-[^125 I]iodonicotinic acid] | 0.69 ± 0.40 percentages of the injected do | 0.13 ± 0.13 percentages of the injected do | 0.53 ± 0.41 percentages of the injected do | 0.27 ± 0.09 percentages of the injected do | 0.18 ± 0.03 percentages of the injected do | 0.44 ± 0.21 percentages of the injected do | 0.24 ± 0.10 percentages of the injected do | 1.04 ± 0.24 percentages of the injected do | 0.14 ± 0.01 percentages of the injected do | 0.67 ± 0.19 percentages of the injected do | relatively inert to dehalogenation in vivo | 23-56 times lower | significantly lower than those observed with iodide | considerably faster than iodide | – | –
COC(=N)c1cc(I)c(O)c(I)c1 [Woods] | – | – | – | – | – | – | – | – | – | – | – | – | – | – | in vivo loss of radioiodine from the protein | –
O=C(CCc1ccc(O)c([125I])c1)ON1C(=O)CCC1=O [Bolton-Hunter] | – | – | – | – | – | – | – | – | – | – | – | – | – | – | – | rapid hydrolysis of the active ester in aqueous solution
